Results reported in US20040067562A1, “Process for the production of L-lysine using coryneform bacteria” (priority 2002, published 2004).

Tests used:
[1] = target: T1, aspartate kinase in the wild type (Corynebacterium glutamicum, UniProt P26512); experiment: inhibition of wild type aspartate kinase by lysine (or analogue)/threonine mixtures; format: biochemical; conditions: wild type enzyme; lysine or analogue 100 mM in mixture with threonine (10 mM)
T1 construct: endogenous in cells
Source text: (§1) The Corynebacterium glutamicum strain DM1725 was produced by multiple untargeted and targeted mutagenesis including genetic engineering methods, selection and mutant selection from C. glutamicum ATCC13032. The strain is resistant to the lysine analogue S-(2-aminoethyl)-L-cysteine and has two identical complete copies of the LysC gene that code for a feedback-resistant aspartate kinase. The two copies are located at the LysC gene site on the chromosome. […] The strain is streptomycin resistant.

[2] = system: feedback-resistant aspartate kinase; experiment: inhibition of feedback-resistant aspartate kinase by lysine (or analogue)/threonine mixtures; format: biochemical, Corynebacterium glutamicum; conditions: feedback-resistant enzyme of strain DM1725; lysine or analogue 100 mM in mixture with threonine (10 mM)
Source text: as §1

T1 sequence (P26512 whole entry): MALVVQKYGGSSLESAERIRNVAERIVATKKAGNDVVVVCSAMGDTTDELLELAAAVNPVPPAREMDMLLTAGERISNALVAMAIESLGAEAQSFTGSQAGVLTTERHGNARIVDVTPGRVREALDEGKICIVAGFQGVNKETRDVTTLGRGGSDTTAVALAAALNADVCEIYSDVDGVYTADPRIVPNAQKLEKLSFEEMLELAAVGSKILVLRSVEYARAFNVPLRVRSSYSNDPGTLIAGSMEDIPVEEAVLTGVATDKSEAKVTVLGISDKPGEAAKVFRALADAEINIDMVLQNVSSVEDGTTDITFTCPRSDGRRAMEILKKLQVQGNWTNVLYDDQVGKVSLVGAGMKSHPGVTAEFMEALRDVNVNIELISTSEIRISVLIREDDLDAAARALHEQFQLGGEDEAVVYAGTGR
T1 sequence (P26512 250-421): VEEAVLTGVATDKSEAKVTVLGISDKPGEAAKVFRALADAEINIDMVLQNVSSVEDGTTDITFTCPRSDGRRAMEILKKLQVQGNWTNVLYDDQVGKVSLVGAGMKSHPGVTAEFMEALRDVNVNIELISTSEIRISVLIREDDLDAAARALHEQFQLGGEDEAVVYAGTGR

Compound | residual activity of aspartate kinase [1] | inhibition of aspartate kinase [2]
NCCCC[C@H](N)C(=O)O [lysine] | 10% | insensitive to inhibition
NCCSC[C@H](N)C(=O)O [S-(2-aminoethyl)-L-cysteine] | 10% | insensitive to inhibition
